Measured values as given in patent US20240043403A1, “HETEROARYL CARBOXAMIDE COMPOUND” (Astellas Pharma Inc., priority 2020, published 2024).
Structures can show the parent of a compound that is named as a salt.

Each compound was assayed against human recombinant DGK ξ (Homo sapiens (Human), UniProt Q13574) (assay: Evaluation of DGK ξ inhibitory effect (ADP-Glo Kinase Assay)). Details: ADP-Glo luminescence.
Format: biochemical
Method: Test Example 1. Evaluation of DGK ξ Inhibitory Effect
The inhibitory effect of a test compound on human recombinant DGK ξ (Cama Biosciences, Inc., 12-410-20N) was examined by the following method in which detection is performed with ADP-Glo™ Kinase Assay (Promega Corporation).
To a 384-well plate (Greiner Bio-One Co., Ltd.), 3 μL of a DGK ξ enzyme dissolved in an assay buffer (40 mM Tris-HCl pH 7.5, 10 mM MgCl2, 1 mM dithiothreitol (DTT) and 0.1 mg/mL bovine serum albumin (BSA)) (90 ng/mL) was added, and 3 μL of the test compound diluted with the same assay buffer was added so that an intended final concentration was obtained. The mixture was left standing at room temperature for 15 minutes, 3 μL of a substrate (150 μM 1-oleoyl-2-acetyl-sn-glycerol (Sigma-Aldrich Co. LLC), 480 μM phosphatidylserine (Avanti, Inc.) and 150 μM UltraPure-ATP (attached to ADP-Glo)) was then added, and the mixture was left standing at room temperature for 30 minutes to react. Thereafter, 3 μL of an ADP-Glo Reagent was added, and the mixture was left standing at room temperature for 40 minutes to stop the enzyme reaction. Further, 6 μL of a Kinase-Detection Reagent was added, the mixture was left standing at room temperature for 30 minutes, and the luminescence was then measured using ARVO X3 (PerkinElmer, Inc.). The half maximal inhibitory concentration (IC50) was calculated by Sigmoid-Emax model non-linear regression analysis, where the signal value in solvent treatment was set to 0% inhibition and the signal value without addition of the DGK ξ enzyme was set to 100% inhibition. […] In the table. Ex represents the number of each Example described below.

Chain of human recombinant DGK ξ (Q13574 whole entry): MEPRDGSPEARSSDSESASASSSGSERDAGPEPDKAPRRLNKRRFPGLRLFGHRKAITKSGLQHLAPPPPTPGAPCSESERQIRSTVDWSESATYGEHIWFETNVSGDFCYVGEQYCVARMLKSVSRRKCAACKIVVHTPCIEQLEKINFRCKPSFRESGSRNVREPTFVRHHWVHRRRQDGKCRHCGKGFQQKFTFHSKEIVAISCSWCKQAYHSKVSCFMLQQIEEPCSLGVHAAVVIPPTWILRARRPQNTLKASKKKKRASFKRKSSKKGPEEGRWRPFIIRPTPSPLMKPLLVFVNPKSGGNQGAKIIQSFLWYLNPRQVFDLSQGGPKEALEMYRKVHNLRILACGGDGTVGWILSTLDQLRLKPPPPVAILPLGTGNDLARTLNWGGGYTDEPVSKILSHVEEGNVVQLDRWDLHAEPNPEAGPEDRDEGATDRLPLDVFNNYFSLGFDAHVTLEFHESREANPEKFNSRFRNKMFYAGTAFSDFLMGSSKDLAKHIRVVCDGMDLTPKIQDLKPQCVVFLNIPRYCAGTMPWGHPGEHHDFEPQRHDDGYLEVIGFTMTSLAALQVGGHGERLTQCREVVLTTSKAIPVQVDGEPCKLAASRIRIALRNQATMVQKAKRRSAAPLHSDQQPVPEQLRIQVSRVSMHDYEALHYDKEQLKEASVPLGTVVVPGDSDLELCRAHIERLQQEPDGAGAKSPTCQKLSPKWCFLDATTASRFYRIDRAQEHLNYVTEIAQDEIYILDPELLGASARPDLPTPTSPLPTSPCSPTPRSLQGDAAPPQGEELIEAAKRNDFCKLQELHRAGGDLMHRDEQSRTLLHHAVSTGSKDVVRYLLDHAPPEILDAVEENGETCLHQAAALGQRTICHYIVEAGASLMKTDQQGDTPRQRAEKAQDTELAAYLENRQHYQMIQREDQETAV

Compound	IC50
CNCCOc1cc(-c2c(NC(=O)c3coc(-c4ccnnc4)n3)ccc(OC3CCC3)c2C(F)(F)F)ccn1 [Example 69]	60 nM
CN1CCN(c2c(NC(=O)c3ccn(-c4ccnnc4)n3)ccc(Oc3ccc(F)cc3)c2C(F)(F)F)C[C@@H]1CN [Example 52]	46 nM
CNC[C@H]1CN(c2c(NC(=O)c3coc(-c4ccnnc4)n3)cc(F)c(Oc3ccccc3)c2F)CCN1C [Example 106]	7.5 nM
CNC[C@H]1CN(c2c(NC(=O)c3ccn(-c4ccnnc4)n3)ccc(Oc3ccccc3Cl)c2Cl)CCN1C [Example 94]	1.4 nM
CN(C)[C@@H]1CCN2CCN(c3c(NC(=O)c4coc(-c5ccnnc5)n4)ccc(OC4CC4)c3C(F)(F)F)C[C@@H]12 [Example 119]	41 nM
CNC[C@H]1CN(c2c(NC(=O)c3ccn(-c4ccnnc4)n3)ccc(OC3CC3)c2C(F)(F)F)CCN1C [Example 88]	110 nM
NC[C@@H]1CCCN(c2c(NC(=O)c3ccn(CC(F)F)n3)ccc(Oc3ccccc3)c2C(F)(F)F)C1 [Example 2]	28 nM
CNC[C@H]1CN(c2c(NC(=O)c3coc(-c4ccnnc4)n3)ccc(C3CCCC3)c2C(F)(F)F)CCN1C [Example 49]	7.8 nM
CNC[C@H]1CN(c2c(NC(=O)c3coc(-c4ccnnc4)n3)ccc(Oc3ccccc3F)c2C(F)(F)F)CCN1C [Example 22, N-[4-(2-fluorophenoxy)-2-{(3S)-4-methyl-3-[(methylamino)methyl]piperazin-yl}-3-(trifluoromethyl)phenyl]-2-(pyridazin-4-yl)-1,3-oxazole-4-carboxamide trihydrochloride]	18 nM
CNC[C@H]1CN(c2c(NC(=O)c3ccn(-c4ccnnc4)n3)ccc(OC3CCCC3)c2C(F)(F)F)CCN1C [Example 44]	8.6 nM
CN(C)[C@@H]1CCN2CCN(c3c(NC(=O)c4ccn(-c5ccnnc5)n4)ccc(OC4CC4)c3C(F)(F)F)C[C@@H]12 [Example 121]	14 nM
N[C@@H]1CCN2CCN(c3c(NC(=O)c4ccn(-c5ccnnc5)n4)ccc(OC4CC4)c3C(F)(F)F)C[C@@H]12 [Example 82]	31 nM
NC[C@]1(F)CCCN(c2c(NC(=O)c3ccn(-c4ccnnc4)n3)ccc(Oc3ccccc3F)c2C(F)(F)F)C1 [Example 126, N-{2-[(3R)-3-(aminomethyl)-3-fluoropiperidin-1-yl]-4-(2-fluorophenoxy)-3-(trifluoromethyl)phenyl}-1-(pyridazin-4-yl)-1H-pyrazole-3-carboxamide monobutanedioate]	6.2 nM
CNCCOc1cccc(-c2c(NC(=O)c3coc(-c4ccnnc4)n3)ccc(OC3CC3)c2C(F)(F)F)c1 [Example 66]	180 nM
NC[C@@H]1CCCN(c2c(NC(=O)c3ccn(CC(F)F)n3)ccc(OC3CCCC3)c2C(F)(F)F)C1 [Example 4]	170 nM
CNC[C@H]1CN(c2c(NC(=O)c3ccn(CC(F)F)n3)ccc(Oc3ccccc3F)c2C(F)(F)F)CCN1C [Example 23]	63 nM
CN1CCN(c2c(NC(=O)c3ccn(CC(F)F)n3)ccc(Oc3ccccc3F)c2Cl)C[C@@H]1CN [Example 112, N-{2-[(3S)-3-(aminomethyl)-4-methylpiperazin-1-yl]-3-chloro-4-(2-fluorophenoxy)phenyl}-1-(2,2-difluoroethyl)-1H-pyrazole-3-carboxamide]	52 nM
CN[C@H]1CCN2CCN(c3c(NC(=O)c4ccn(-c5ccnnc5)n4)ccc(Oc4ccccc4F)c3C(F)(F)F)C[C@H]12 [Example 85]	5.2 nM
CNC[C@H]1CN(c2c(NC(=O)c3coc(-c4ccnnc4)n3)ccc(Oc3ccccc3F)c2Cl)CCN1C [Example 98]	7.5 nM
NC[C@@H]1CCCN(c2c(NC(=O)c3cccn(CC(F)(F)F)c3=O)ccc(Oc3ccccc3)c2C(F)(F)F)C1 [Example 110]	190 nM
CN(C)CCOc1cccc(-c2c(NC(=O)c3coc(-c4ccnnc4)n3)ccc(OC3CC3)c2C(F)(F)F)c1 [Example 114]	37 nM
CNC[C@H]1CN(c2c(NC(=O)c3cnn(-c4ccnnc4)n3)ccc(Oc3ccccc3Cl)c2C(F)(F)F)CCN1C [Example 97]	12 nM
CNCCOc1cc(-c2c(NC(=O)c3coc(-c4ccnnc4)n3)ccc(OC3CC3)c2C(F)(F)F)ccn1 [Example 70]	55 nM
CN1CCN(c2c(NC(=O)c3ccn(-c4ccnnc4)n3)ccc(Oc3ccccc3Cl)c2Cl)C[C@@H]1CN [Example 56]	0.89 nM
NC[C@@H]1CCCN(c2c(NC(=O)c3ccn(CC(F)F)n3)ccc(Oc3ccc(F)cc3)c2C(F)(F)F)C1 [Example 8]	88 nM
CNC[C@H]1CN(c2c(NC(=O)c3ccn(-c4ccnnc4)n3)ccc(-c3ccccc3F)c2C(F)(F)F)CCN1C [Example 59]	11 nM
CN1CCN(c2c(NC(=O)c3ccn(-c4ccnnc4)n3)ccc(OC3CCC3)c2C(F)(F)F)C[C@@H]1CN [Example 51]	17 nM

Compound	IC50
NC[C@@H]1CCCN(c2c(NC(=O)c3ccn(-c4ccnnc4)n3)ccc(OC3CC3)c2-c2ccccc2)C1 [Example 63]	70 nM
CN1CCN(c2c(NC(=O)c3ccn(CC(F)F)n3)ccc(Oc3ccccc3F)c2C(F)(F)F)C[C@H]1CN [Example 19]	960 nM
CN1CCN(c2c(NC(=O)c3coc(-c4ccnnc4)n3)ccc(OC3CCCC3)c2C(F)(F)F)C[C@@H]1CN [Example 41]	5 nM
NC[C@@H]1CCCN(c2c(NC(=O)c3ccn(-c4ccnnc4)n3)ccc(-c3ccccc3F)c2C(F)(F)F)C1 [Example 43]	30 nM
CNC[C@H]1CN(c2c(NC(=O)c3ccn(-c4ccnnc4)n3)ccc(C3CCCC3)c2C(F)(F)F)CCN1C [Example 124]	3.8 nM
NC[C@@H]1CCCN(c2c(NC(=O)c3cccn(CC(F)F)c3=O)ccc(Oc3ccccc3F)c2C(F)(F)F)C1 [Example 11]	35 nM
NC[C@@H]1CCCN(c2c(NC(=O)c3ccn(-c4ccnnc4)n3)ccc(Oc3ccccc3Cl)c2C(F)(F)F)C1 [Example 33]	4.8 nM
NC[C@@H]1CCCN(c2c(NC(=O)c3ccn(CC(F)F)n3)ccc(Oc3ccccc3F)c2F)C1 [Example 6]	57 nM
CN(C)[C@@H]1CCN2CCN(c3c(NC(=O)c4coc(-c5ccnnc5)n4)ccc(Oc4ccccc4F)c3C(F)(F)F)C[C@@H]12 [Example 120]	4.3 nM
NC[C@@H]1CCCN(c2c(NC(=O)c3ccn(-c4ccnnc4)n3)ccc(Oc3ccccc3F)c2C(F)(F)F)C1 [Example 34]	3.1 nM
CN(C)[C@@H]1CCN2CCN(c3c(NC(=O)c4ccn(-c5ccnnc5)n4)ccc(Oc4ccccc4F)c3C(F)(F)F)C[C@@H]12 [Example 118]	1.4 nM
NC[C@@H]1CCCN(c2c(NC(=O)c3ccn(-c4ccnnc4)n3)ccc(Oc3ccccc3)c2C(F)(F)F)C1 [Example 31]	23 nM
NC[C@@H]1CCCN(c2c(NC(=O)c3ccn(-c4ccnnc4)n3)ccc(Oc3ccccn3)c2C(F)(F)F)C1 [Example 61]	46 nM
CNC[C@H]1CN(c2c(NC(=O)c3ccn(CC(F)F)n3)ccc(Oc3ccccc3F)c2Cl)CCN1C [Example 27]	37 nM
Cc1ccccc1Oc1ccc(NC(=O)c2ccn(-c3ccnnc3)n2)c(N2CCC[C@@H](CN)C2)c1C(F)(F)F [Example 62]	6.9 nM
CNC[C@H]1CN(c2c(NC(=O)c3ccn(-c4ccnnc4)n3)ccc(Oc3ccccc3F)c2C2CC2)CCN1C [Example 104]	37 nM
CNC[C@H]1CN(c2c(NC(=O)c3cc(C)n(-c4ccnnc4)n3)ccc(Oc3ccccc3F)c2C(F)(F)F)CCN1C [Example 92]	92 nM
COCCNC[C@@H]1CCCN(c2c(NC(=O)c3ccn(-c4ccnnc4)n3)ccc(Oc3ccccc3F)c2C(F)(F)F)C1 [Example 64]	13 nM
CNC[C@H]1CN(c2c(NC(=O)c3ccn(-c4ccnnc4)n3)cc(F)c(Oc3ccccc3)c2F)CCN1C [Example 108]	8.9 nM
CNC[C@H]1CN(c2c(NC(=O)c3ccn(-c4ccnnc4)n3)ccc(Oc3ccccc3Cl)c2C(F)(F)F)CCN1C [Example 87]	4.1 nM
CN(C)CCOc1cc(-c2c(NC(=O)c3coc(-c4ccnnc4)n3)ccc(OC3CCC3)c2C(F)(F)F)ccn1 [Example 113, N-[4-(cyclobutyloxy)-2-{2-[2-(dimethylamino)ethoxy]pyridin-4-yl}-3-(trifluoromethyl)phenyl]-2-(pyridazin-4-yl)-1,3-oxazole-4-carboxamide]	21 nM
CN1CCN(c2c(NC(=O)c3coc(-c4ccnnc4)n3)ccc(Oc3ccccc3Cl)c2Cl)C[C@@H]1CN [Example 57]	0.42 nM
CN[C@@H]1CCN2CCN(c3c(NC(=O)c4coc(-c5ccnnc5)n4)ccc(Oc4ccccc4F)c3C(F)(F)F)C[C@@H]12 [Example 83]	3.5 nM
CNC[C@H]1CN(c2c(NC(=O)c3ccn(-c4ccnnc4)n3)ccc(Oc3ccc(F)cc3F)c2C(F)(F)F)CCN1C [Example 96]	30 nM
N[C@@H]1CCN2CCN(c3c(NC(=O)c4coc(-c5ccnnc5)n4)ccc(OC4CCC4)c3C(F)(F)F)C[C@@H]12 [Example 75]	69 nM
CNC[C@H]1CN(c2c(NC(=O)c3coc(-c4ccnnc4)n3)ccc(Oc3ccccc3Cl)c2Cl)CCN1C [Example 93]	2.8 nM
CN1CCN(c2c(NC(=O)c3ccn(CC(F)F)n3)ccc(Oc3ccc(F)cc3)c2C(F)(F)F)C[C@@H]1CN [Example 28]	240 nM
